How the values were obtained:
[1] = tested on: cotton aphid; assay: Insecticidal test on cotton aphid (seedling dip); format: in vivo; details: Aphis gossypii, in Cucumis sativus, 72 h
Summary of the method: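 Cucumber seedlings carrying cotton aphid larvae were dipped in a water-diluted wettable powder at 500 ppm active ingredient, then air-dried. After 3 days at 25° C. live insects were counted and mortality calculated; single series.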

[2] = tested on: cotton aphid; assay: Insecticidal test on cotton aphid (root zone irrigation); format: in vivo; details: Aphis gossypii, in Cucumis sativus, 72 h
Procedure: A wettable powder prepared in accordance with Formulation Example 2 was diluted with water to a concentration of an active ingredient of 100 ppm. The root zone of cucumber seedlings which had been inoculated with larvae of cotton aphid was irrigated with 5 mL of the solution. The treated cucumber seedlings were placed in a thermostatic chamber at 25° C. for 3 days, and the live insects were counted for calculation of the mortality by Equation 2. The test was carried out by one series system.

[3] = tested on: diamondback moth; assay: Insecticidal test on diamondback moth; format: in vivo; details: Plutella xylostella, in Brassica oleracea, 144 h
Summary of the method: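 Cabbage leaves were dipped in a wettable-powder dilution at 500 ppm active ingredient, air-dried and given 10 second-instar larvae per cup. Mortality was counted after 6 days at 25 °C, in a single series.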

[4] = tested on: cotton bollworm; assay: Insecticidal test on cotton bollworm; format: in vivo; details: Helicoverpa armigera, in Brassica oleracea, 144 h
Procedure: A wettable powder prepared in accordance with Formulation Example 2 was diluted with water to a concentration of an active ingredient of 500 ppm. Cabbage leaves were dipped in this solution and dried in air and then put in a plastic cup having a capacity of 60 mL. Five hatched larvae of cotton bollworm were released in the cup, and the cup was lidded and placed in a thermostatic chamber at 25° C. for 6 days, and the number of dead larvae were assessed for calculation of the mortality by Equation 2. The test was carried out by two series system.

[5] = tested on: brown rice planthopper; assay: Insecticidal test on brown rice planthopper; format: in vivo; details: 144 h
Summary of the method: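 Rice sprouts dipped in 500 ppm active ingredient (water-diluted wettable powder), then exposed to ten third-instar brown rice planthopper larvae. Held at 25° C. for 6 days; dead larvae counted for mortality, single series.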

[6] = tested on: two-spotted spider mites; assay: Miticidal test on two-spotted spider mites (seedling dip); format: in vivo, Tetranvchus urticae; details: Glycine max, 312 h; 500 ppm active ingredient, soybean seedlings with imago mites dipped, 25° C., 13 days; read-out: protective value
Summary of the method: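 Soybean seedlings carrying adult mites were dipped in wettable-powder dilution at 500 ppm active ingredient, air-dried, and held at 25° C for 13 days. Live mites were counted and a protective value calculated.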

CC(=O)Nc1cc(OCC(F)(F)C(F)(F)F)nn1-c1cc([S+]([O-])CC(F)(F)F)c(C)cc1F (stereo not drawn) [1-18, 5-acetylamino-1-{2-fluoro-4-methyl-5-(2,2,2-trifluoroethylsulfinyl)phenyl}-3-(2,2,3,3,3-pentafluoropropoxy)pyrazole]
≥ 90%: mortality at 500 ppm [1] | mortality at 100 ppm [2] | mortality at 500 ppm [3] | mortality at 500 ppm [4] | mortality at 500 ppm [5] | pest or weed control at 500 ppm [6]

Source: patent publication US8802713B2, “3-alkoxy-1-phenylpyrazole derivatives and pesticides” (Kumiai Chemical Industry Co., Ltd., priority 2007, dated 2014)
